The values that follow come from patent US11951094B2, “TLR2 modulator compounds, pharmaceutical compositions and uses thereof” (Axial Therapeutics, Inc., priority 2020, dated 2024).

Chain of TLR2 (O60603 21-784): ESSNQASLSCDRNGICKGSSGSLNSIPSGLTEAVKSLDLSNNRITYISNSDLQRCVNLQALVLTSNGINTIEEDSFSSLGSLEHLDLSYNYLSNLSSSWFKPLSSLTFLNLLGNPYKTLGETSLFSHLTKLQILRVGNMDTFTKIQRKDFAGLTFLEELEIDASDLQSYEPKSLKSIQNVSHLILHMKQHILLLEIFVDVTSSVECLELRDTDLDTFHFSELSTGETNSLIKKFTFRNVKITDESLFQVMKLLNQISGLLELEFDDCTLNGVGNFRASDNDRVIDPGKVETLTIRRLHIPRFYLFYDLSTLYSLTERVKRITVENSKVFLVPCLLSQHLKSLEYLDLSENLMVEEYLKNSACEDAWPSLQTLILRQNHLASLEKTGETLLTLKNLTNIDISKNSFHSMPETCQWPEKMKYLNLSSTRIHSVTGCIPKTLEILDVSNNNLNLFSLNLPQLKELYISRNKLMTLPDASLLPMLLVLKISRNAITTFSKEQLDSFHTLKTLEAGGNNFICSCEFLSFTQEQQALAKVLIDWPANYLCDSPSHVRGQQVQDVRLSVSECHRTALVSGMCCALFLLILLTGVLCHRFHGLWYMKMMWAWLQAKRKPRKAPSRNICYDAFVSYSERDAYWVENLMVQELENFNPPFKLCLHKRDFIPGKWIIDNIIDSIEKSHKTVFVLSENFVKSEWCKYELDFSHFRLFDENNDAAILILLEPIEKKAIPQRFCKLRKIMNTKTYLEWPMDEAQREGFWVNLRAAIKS

One experiment has as its target TLR2 (Homo sapiens, UniProt O60603). The experiment can be described thus: TLR2 agonist screening assay, HEK-Blue TLR2 reporter cell line (NF-kB-driven SEAP, absorbance at 600 nm). In kind it is cell-based. On the set-up: host or cells: HEK-293 (HEK-Blue TLR2 reporter cell line). The conditions noted are these: HEK-Blue TLR2 reporter cells, agonist mode; average of all runs (Table 3). An outline of the steps:
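HEK-293 cells expressing TLR2 with NF-kB-driven SEAP were plated at 40,000 per well. After 16-24 h, they were treated overnight with diluted agonists in detection medium (1% DMSO final). Absorbance at 600 nm was read, and EC50 values were fitted.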
Take `CCCCCCCCCCCCCCNC(=O)CC(C)(C)NC(=O)c1ccc(C(=O)N2C[C@@H](C(=O)N[C@H]3C[C@@H]3c3ccccc3)[C@H](C(=O)N[C@H]3C[C@@H]3c3ccccc3)C2)cc1` [Compound 011]: the concentration giving a half-maximal response (EC50) was greater than 1000 nM.

As to `CCCCCCCCN1CCN(C(=O)c2ccc(C(=O)N3C[C@@H](C(=O)N[C@H]4C[C@@H]4c4ccccc4)[C@H](C(=O)N[C@H]4C[C@@H]4c4ccccc4)C3)cc2)C[C@H]1C(=O)NCCCCCC` [Compound 031], the EC50 was greater than 1000 nM.

The compound `CCCCCCNC(=O)[C@@H]1CN(C(=O)c2ccc(C(=O)N3C[C@@H](C(=O)N[C@H]4C[C@@H]4c4ccccc4)[C@H](C(=O)N[C@H]4C[C@@H]4c4ccccc4)C3)cc2)C[C@@H]1O` (racemic) [Compound 034, (3S,4S)-1-(4-((3R*,4R*)-3-(hexylcarbamoyl)-4-hydroxypyrrolidine-1-carbonyl)benzoyl)-N3,N4-bis((1S,2R)-2-phenylcyclopropyl)pyrrolidine-3,4-dicarboxamide] yielded a 50% effective concentration (EC50) of 351 to 1000 nM.

`CCCCCCNC(=O)[C@@H]1C[C@@H](C(=O)NCCCCCC)CN(C(=O)c2ccc(C(=O)N3C[C@@H](C(=O)N[C@H]4C[C@@H]4c4ccccc4)[C@H](C(=O)N[C@H]4C[C@@H]4c4ccccc4)C3)cc2)C1` [Compound 043] had an EC50 greater than 1000 nM.

The compound `CCCCCCCCCCCCCCNC(=O)[C@@H]1CN(C(=O)c2ccc(C(=O)N3C[C@@H](C(=O)N[C@H]4C[C@@H]4c4ccccc4)[C@H](C(=O)N[C@H]4C[C@@H]4c4ccccc4)C3)cc2)C[C@@H]1OC` (single isomer, unassigned) [Compound 061, (3S,4S)-1-(4-((3R*,4R*)-3-methoxy-4-(tetradecylcarbamoyl)pyrrolidine-1-carbonyl)benzoyl)-N3,N4-bis((1S,2R)-2-phenylcyclopropyl)pyrrolidine-3,4-dicarboxamide] showed a concentration giving a half-maximal response (EC50) of 0.1 to 50 nM.

On to `CCCCCCCCC(=O)N1CCN(C(=O)c2ccc(C(=O)N3C[C@@H](C(=O)N[C@H]4C[C@@H]4c4ccccc4)[C@H](C(=O)N[C@H]4C[C@@H]4c4ccccc4)C3)cc2)CC1C(=O)NCCCCCC` (stereo partly drawn) [Compound 051, (3S,4S)-1-(4-(3-(hexylcarbamoyl)-4-nonanoylpiperazine-1-carbonyl)benzoyl)-N3,N4-bis((1S,2R)-2-phenylcyclopropyl)pyrrolidine-3,4-dicarboxamide], for which the concentration for a half-maximal effect (EC50) fell in the range of 0.1 to 50 nM.

Still in this experiment, the particulars now being: HEK-Blue TLR2 reporter cells, agonist mode; average of all runs (Table 4).
`CCCCCCCC(=O)N1CCN(Cc2ccc(C(=O)N3C[C@@H](C(=O)N[C@H]4C[C@@H]4c4ccccc4)[C@H](C(=O)N[C@H]4C[C@@H]4c4ccccc4)C3)cc2)C[C@H]1C(=O)NCCCCCC` [Compound 122, (3S,4S)-1-(4-(((S)-3-(hexylcarbamoyl)-4-octanoylpiperazin-1-yl)methyl)benzoyl)-N3,N4-bis((1S,2R)-2-phenylcyclopropyl) pyrrolidine-3,4-dicarboxamide] returned an EC50 greater than 1000 nM.

`CCCCCCCCCNC(=O)[C@H](CNC(=O)c1ccc(C(=O)N2C[C@@H](C(=O)N[C@H]3C[C@@H]3c3ccccc3)[C@H](C(=O)N[C@H]3C[C@@H]3c3ccccc3)C2)cc1)NC(=O)CCCCCCCCC` [Compound 207, (3S,4S)-1-(4-(((S)-2-decanamido-3-(nonylamino)-3-oxopropyl)carbamoyl)benzoyl)-N3,N4-bis((1S,2R)-2-phenylcyclopropyl)pyrrolidine-3,4-dicarboxamide] had an EC50 of 0.1 to 50 nM.

`CCCCCCCCCCCCCNC(=O)N[C@H]1CN(c2ncc(-c3ccc(C(=O)N4C[C@@H](C(=O)N[C@H]5C[C@@H]5c5ccccc5)[C@H](C(=O)N[C@H]5C[C@@H]5c5ccccc5)C4)cc3)o2)C[C@@H]1OC` [Compound 234, (3S,4S)-1-(4-(2-((3S,4S)-3-methoxy-4-(3-tridecylureido)pyrrolidin-1-yl)oxazol-5-yl)benzoyl)-N3,N4-bis((1S,2R)-2-phenylcyclopropyl)pyrrolidine-3,4-dicarboxamide] came in with an EC50 greater than 1000 nM.

`CCCCCCCCCCCCCCCN1CCCC(NC(=O)c2ccc(C(=O)N3C[C@@H](C(=O)N[C@H]4C[C@@H]4c4ccccc4)[C@H](C(=O)N[C@H]4C[C@@H]4c4ccccc4)C3)cc2)C1=O` (stereo partly shown) [Compound 136] registered a concentration giving a half-maximal response (EC50) of 0.1 to 50 nM.

In turn, `CCCCCCCCCCCCCCNC(=O)[C@@H]1CN(C(=O)c2ccc(C(=O)N3C[C@@H](C(=O)N[C@H]4C[C@@H]4c4ccccc4)[C@H](C(=O)N[C@H]4C[C@@H]4c4ccccc4)C3)cc2)C[C@@H]1O` (single isomer, unassigned) [Compound 103, (3S,4S)-1-(4-((3R*,4R*)-3-hydroxy-4-(tetradecylcarbamoyl)pyrrolidine-1-carbonyl)benzoyl)-N3,N4-bis((1S,2R)-2-phenylcyclopropyl) pyrrolidine-3,4-dicarboxamide] registered an EC50 of 351 to 1000 nM.

Consider `CCCCCCCC(=O)N[C@@H](CNC(=O)c1ccc(C(=O)N2C[C@@H](C(=O)N[C@H]3C[C@@H]3c3ccccc3)[C@H](C(=O)N[C@H]3C[C@@H]3c3ccccc3)C2)cc1)C(=O)NCCCCCC` [Compound 173, (3S,4S)-1-(4-(((S)-3-(hexylamino)-2-octanamido-3-oxopropyl)carbamoyl)benzoyl)-N3,N4-bis((1S,2R)-2-phenylcyclopropyl)pyrrolidine-3,4-dicarboxamide], for which the EC50 was 0.1 to 50 nM.

As for `CCCCCCCCCCCCCCNC(=O)[C@H]1CN(C(=O)c2cccc(C(=O)N3C[C@@H](C(=O)N[C@H]4C[C@@H]4c4ccccc4)[C@H](C(=O)N[C@H]4C[C@@H]4c4ccccc4)C3)c2)CCN1C(C)=O` [Compound 172, (3S,4S)-1-(3-((R)-4-acetyl-3-(tetradecylcarbamoyl)piperazine-1-carbonyl)benzoyl)-N3,N4-bis((1S,2R)-2-phenylcyclopropyl)pyrrolidine-3,4-dicarboxamide], the concentration giving a half-maximal response (EC50) is greater than 1000 nM.

Turning to `CCCCCCC(=O)N[C@@H](CNC(=O)c1ccc(C(=O)N2C[C@@H](C(=O)N[C@H]3C[C@@H]3c3ccccc3)[C@H](C(=O)N[C@H]3C[C@@H]3c3ccccc3)C2)cc1)C(=O)NCCCC` [Compound 131, (3S,4S)-1-(4-(((S)-3-(butylamino)-2-heptanamido-3-oxopropyl)carbamoyl)benzoyl)-N3,N4-bis((1S,2R)-2-phenylcyclopropyl)pyrrolidine-3,4-dicarboxamide], the half-maximal effective concentration (EC50) lay in the range of 351 to 1000 nM.

Consider `CCCCCCCO[C@H]1CN(C(=O)c2ccc(C(=O)N3C[C@@H](C(=O)N[C@H]4C[C@@H]4c4ccccc4)[C@H](C(=O)N[C@H]4C[C@@H]4c4ccccc4)C3)cc2)C[C@@H]1NC(=O)CCCCCC` [Compound 080, (3S,4S)-1-(4-((3S,4S)-3-heptanamido-4-(heptyloxy)pyrrolidine-1-carbonyl)benzoyl)-N3,N4-bis((1S,2R)-2-phenylcyclopropyl)pyrrolidine-3,4-dicarboxamide], for which the half-maximal effective concentration (EC50) lay in the range of 51 to 350 nM.

Take `CCCCCCCCCCCCCNC(=O)N[C@@H]1CCN(C(=O)c2ccc(C(=O)N3C[C@@H](C(=O)N[C@H]4C[C@@H]4c4ccccc4)[C@H](C(=O)N[C@H]4C[C@@H]4c4ccccc4)C3)cc2)C1` [Compound 079, (3S,4S)—N3,N4-bis((1S,2R)-2-phenylcyclopropyl)-1-(4-((R)-3-(3-tridecylureido)pyrrolidine-1-carbonyl)benzoyl)pyrrolidine-3,4-dicarboxamide]: the concentration giving a half-maximal response (EC50) was 0.1 to 50 nM.
